According to patent US20070213411A1, “Dispersions And Methods Of Preparing Them” (The Australian National University, priority 2003, published 2007):

How the values were obtained:
[1] = Theoretical water droplet contact angle on the oil surface (Young's wetting equation); format: physicochemical; settings: calculated by Young's wetting equation
Protocol: This can be attributed to the fact that the more soluble oils undergo Ostwald ripening, allowing rapid oil droplet growth. The more hydrophobic an oil the better it is for use in methods described herein as Ostwald ripening cannot occur. A degree of hydrophobicity can be estimated by applying the Young's wetting equation to a theoretical liquid/liquid drop profile. A theoretical water droplet contact angle on the oil surface can be calculated, and if this angle is higher than about 80°, preferably higher than 90° then the oil is sufficiently hydrophobic. For example, for dodecane, the theoretical droplet contact angle is 110°. However, it should be noted that selection of a suitable carrier liquid or oil according to theoretical contact angles is a guide only and that liquids or oils having a theoretical contact angle of about 80° are not necessarily less preferred than those having a higher theoretical contact angle.

[2] = cited from earlier work; for Surface tension: against air; for Interfacial tension: against water
[3] = Dispersion in water and its stability after vigorous shaking, de-gassed versus gassed (turbidity, visual); format: physicochemical; settings: for time the dispersion is maintained / stable: de-gassed mixture in water after vigorous shaking, no added dispersants; for quality of dispersion in water (turbidity / visual): de-gassed; for quality of dispersion in water (turbidity / visual) / quality of dispersion in water (visual): after vigorous shaking; for quality of dispersion in water (visual): gassed
Protocol: (§1) The enhancement of oil droplet dispersion in water is most easily monitored using turbidity measurements. This enhancement can be measured by the difference between the new system (degassed) and the gassed blank, following vigorous shaking. […] Turbidity is a measure of how many droplets are dispersed in a given phase and is measured in NTU (nephelometric turbidity units) and in the results presented here is measured by light scattering. To give an understanding of the magnitude of these turbidity values, distilled water has a turbidity of 0.02 NTU, while tap water has a value of 1-2 NTU. Although useful, NTU measurements are of limited value and the results can be inaccurate if the refractive index of the dispersed phase is close to that of the dispersing phase (such as with perfluorocarbons in water) and so in some cases dynamic light scattering (DLS) has been used to obtain the droplet size distribution, as well as the charge on the oil droplets. However, careful interpretation of the DLS results is required for poly-disperse samples. Mono-disperse samples show size distribution by volume graphs (see later) over similar size ranges to the Z-average (diameter) and have a small PDI value (poly-dispersity index). The magnitude of the PDI is a measure of poly-dispersity. For poly-disperse samples the Z-average is the best estimate of average droplet size.
(§2) Mixtures of oil and water were de-gassed by a process of repeated freezing in liquid nitrogen, followed by pumping down to a pressure of 0.01 mbar and then melting in a sealed tube. The dissolved gas produced on each melting cycle was removed on re-freezing. Although this process was carried out five times, typically no further de-gassing on melting was observed after 3-4 cycles. […] (It should be noted that membrane separators and vacuum towers are used to de-gas liquids commercially.)
(§3) Dispersion of oil in water was achieved by vigorous shaking of the mixture for 8 sec in a sealed Pyrex tube. Turbidity was measured using an HF Scientific Micro 100 Turbidimeter. Particle sizes and zeta potentials were measured using a Malvern Zetasizer.

[4] = Droplet size distribution of oil-in-water dispersions by dynamic light scattering (Malvern Zetasizer); format: physicochemical; settings: 0.2 ml/25 ml water
Protocol: as §1, §2, §3

[5] = Zeta potential of oil droplets (Malvern Zetasizer); format: physicochemical; settings: de-gassed mixture in water
Protocol: as §2, §3

SMILES: FC(F)(F)C(F)(F)C(F)(F)C(F)(F)C(F)(F)C(F)(F)C(F)(F)F [C7F16, perfluoroheptane]
- Theoretical contact angle (water droplet on oil surface) [1]: 112°^
- Surface tension [2]: 12.85 mN/m
- Interfacial tension [2]: 39.7 mN/m

SMILES: FC(F)(F)C(F)(F)C(F)(F)C(F)(F)C(F)(F)C(F)(F)F [C6F14, perfluorohexane]
- time the dispersion is maintained / stable [3]: many hours
- quality of dispersion in water (turbidity / visual) [3]: readily dispersed
- time to phase separation after vigorous shaking ([3]; gassed mixture, 0.2 ml/25 ml water): less than a minute
- Theoretical contact angle (water droplet on oil surface) [1]: 111° ^
- Surface tension [2]: 11.91 mN/m
- Interfacial tension [2]: 38 mN/m

SMILES: FC(F)(F)C(F)(F)C(F)(F)C(F)(F)C(F)(F)C(F)(F)C(F)(F)C(F)(F)Br [Perflubron, perfluorooctyl bromide]
- average droplet diameter ([4]; de-gassed, 1 hour after vigorous shaking): about 0.6 microns
- PDI (poly-dispersity index) ([4]; de-gassed, at one hour): 0.430
- Z-average size ([4]; de-gassed, at one hour): 599.6 nm
- droplet size of size graph (Diam) ([4]; de-gassed, at one hour): 437.6 nm
- PDI (poly-dispersity index) ([4]; gassed, after 1 hour): 0.674
- Z-average size ([4]; gassed, at one hour): 1176 nm
- time the dispersion is maintained / stable [3]: many hours
- quality of dispersion in water (turbidity / visual) [3]: enhanced dispersion due to de-gassing is observed
- zeta potential of droplets [5]: −42 mV
- Theoretical contact angle (water droplet on oil surface) [1]: 113°
- Surface tension [2]: 18 mN/m
- Interfacial tension [2]: 47 mN/m

SMILES: COC1=CC(=O)C[C@@H](C)[C@]12Oc1c(Cl)c(OC)cc(OC)c1C2=O [griseofulvin]
- turbidity after dispersion by vigorous shaking ([3]; 0.05 g dissolved in 10 ml soybean oil, 0.2 ml of this dispersed in 25 ml water): the same as those obtained for soybean oil alone
- quality of dispersion in water (turbidity / visual) [3]: clearly well dispersed
- quality of dispersion in water (visual) [3]: solid clumps and a more transparent solution

SMILES: FC(F)(F)C(F)(F)C(F)(F)C(F)(F)C(F)(F)C(F)(F)C(F)(F)C(F)(F)F [C8F18, perfluorooctane]
- Theoretical contact angle (water droplet on oil surface) [1]: 113° ^
- Surface tension [2]: 14.00 mN/m
- Interfacial tension [2]: 42 mN/m

SMILES: CCCCCCCCCCCC [dodecane, reference compound]
- Theoretical contact angle (water droplet on oil surface) [1]: 110 °

SMILES: CC(C)c1cccc(C(C)C)c1O [Propofol, 2,6-diisopropyl phenol]
- effect of added salt on the dispersion ([3]; de-gassed dispersion exposed to high salt levels, above those found in human blood): unaffected by the addition of salt
- time the dispersion is maintained / stable [3]: many hours
- quality of dispersion in water (turbidity / visual) [3]: complete dispersion of the oil
- quality of dispersion in water (visual) [3]: many large, visible droplets of the oil
